Experimental findings from patent US12605364B2, “Methods of treating SARS-CoV-2 infections” (priority 2020, dated 2026) are described below.

The structures appear in SMILES notation. In brackets after ≈: the same amount, converted by molar mass. Several values for one entry are separate records, joined by “and”; a condition that tells them apart may be missing. Equal values may be shown once.

For the assay, the system named is SARS-CoV-2. Description: Virus neutralization (VN) assay, scoring of SARS-CoV-2 cytopathic effects (CPE) in Vero E6 cells. Type of assay: cell-based.

In the case of `O=C1CN(/N=C/c2ccc(-c3ccc([N+](=O)[O-])cc3)o2)C(O)=N1` [dantrolene], the CPE observed result is “no CPE was observed”; the “Day 4 Read (CPE in wells)” value is 3/3 wells had No CPE and 2/3 wells had >90% and 1/3 wells had >90% and 3/3 wells had >90% and 3/3 wells had sparce; the “Day 6 Read (CPE in wells)” value is 3/3 wells had No CPE and 2/3 wells had >90% and 1/3 wells had >90% and 3/3 wells had >90% and 3/3 wells had sparce; the anti-viral activity entry is “showed anti-viral activity”. Also, the “cytopathic effects (indicating virus growth)” value was “No cytopathic effects”. Moreover, the MIC (Severe acute respiratory syndrome coronavirus 2, read-out: minimum inhibitory concentration) turned out to be 20 µM (≈ 6.29 µg/mL).
